Columns and labels:
[1] = tested on: actinic keratoses lesions; assay: Phototherapy of actinic keratoses lesions with topical photosensitizer prodrug and red light emitting OLED (Device A); assay type: in vivo, person; conditions: 20% topical solution on individual lesions; illuminated about 14-18 hours after application with red OLED Device A
Description: 5-Aminolevulinic acid HCl (20% topical solution, available as LEVULAN® KERASTICK® from DUSA® Pharmaceuticals) is topically applied to individual lesions on a person suffering from actinic keratoses.
Methyl aminolevulinate (16.8% topical cream, available as METVIXIA® Cream from GALERMA LABORATORIES, Fort Worth, Tex., USA) is topically applied to individual lesions on a person suffering from actinic keratoses.

[2] = tested on: presumed ocular histoplasmosis; set-up: species or system person; conditions: in vivo, iv
[3] = tested on: age-related macular degeneration; assay: Verteporphin phototherapy of age-related macular degeneration, retina illuminated with red OLED (Device A); conditions: about 6 mg/m^2 i.v. over about 10 minutes; retina illuminated about 15 minutes after start of infusion with red OLED Device A
pathological myopia = assay: Verteporphin phototherapy of pathological myopia, retina illuminated with red OLED (Device A); conditions: about 6 mg/m^2 i.v. over about 10 minutes; retina illuminated about 15 minutes after start of infusion with red OLED Device A

SMILES | number or severity of the lesions after the treatment [1] | patient's vision after treatment [2] | patient's vision after treatment [3] | patient's vision after treatment (pathological myopia)
Cl.NCC(=O)CCC(=O)O [5-Aminolevulinic acid HCl] | anticipated to be reduced | – | – | –
C=Cc1c(C)c2cc3nc(cc4[nH]c(cc5nc(cc1[nH]2)C(C)=C5CCC(=O)O)c(CCC(=O)OC)c4C)[C@@]1(C)C3=CC=C(C(=O)OC)[C@H]1C(=O)OC [Verteporphin] | – | anticipated to be stabilized | anticipated to be stabilized | anticipated to be stabilized
